Data: ChEMBL document CHEMBL1201862, “PubChem BioAssay data set” (2004)
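Exposure lasted 48 hours, with cells grown in 96-well plates and compounds tested at five concentrations. GI50: concentration for 50% inhibition of growth.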 Activity calls are given as the source filed them. Cut-off read from the data, not from the text of the source: active = GI50 up to about 1.1 µM and inactive = higher.

What was measured:
Assay in all cases: inhibition of tumour cell growth, NCI panel, 48 h
SW-620 = system: SW-620
HCT-15 = system: HCT-15
SF-295 = system: SF-295
OVCAR-3 = system: OVCAR-3
A549 = system: A549
Malme-3M = system: Malme-3M
UACC-62 = system: UACC-62
SK-MEL-2 = system: SK-MEL-2
786-0 = system: 786-0
SK-OV-3 = system: SK-OV-3
SF-539 = system: SF-539
T47D = system: T47D
OVCAR-4 = system: OVCAR-4
RXF 393 = system: RXF 393
KM12 = system: KM12
SNB-75 = system: SNB-75
K562 = system: K562
MDA-MB-231 = system: MDA-MB-231
MDA-MB-435 = system: MDA-MB-435
OVCAR-8 = system: OVCAR-8
OVCAR-5 = system: OVCAR-5
NCI-H226 = system: NCI-H226
A498 = system: A498
RPMI-8226 = system: RPMI-8226
HT-29 = system: HT-29
SK-MEL-5 = system: SK-MEL-5
UACC-257 = system: UACC-257
IGROV-1 = system: IGROV-1
SR = system: SR
UO-31 = system: UO-31
CAKI-1 = system: CAKI-1
NCI/ADR-RES = system: NCI/ADR-RES
U-251 = system: U-251
TK-10 = system: TK-10
PC-3 = system: PC-3
MOLT-4 = system: MOLT-4
NCI-H460 = system: NCI-H460
Hs-578T = system: Hs-578T
COLO 205 = system: COLO 205
SNB-19 = system: SNB-19
SF-268 = system: SF-268
HOP-62 = system: HOP-62
NCI-H23 = system: NCI-H23
ACHN = system: ACHN
LOX IMVI = system: LOX IMVI
MCF7 = system: MCF7
M14 = system: M14
SN12C = system: SN12C
NCI-H522 = system: NCI-H522
BT-549 = system: BT-549
MDA-N = system: MDA-N
EKVX = system: EKVX
HCT-116 = system: HCT-116
HOP-92 = system: HOP-92
SK-MEL-28 = system: SK-MEL-28
DU-145 = system: DU-145
HCC 2998 = system: HCC 2998
HL-60 = system: HL-60
CCRF-CEM = system: CCRF-CEM

`c1ccc(CCc2cccnc2)nc1` was tested, and the GI50 (SW-620) was > 100 µM (inactive), the GI50 (HCT-15) was > 100 µM and the GI50 (SF-295) was > 100 µM (inactive). The GI50 (OVCAR-3) was > 100 µM (inactive), the GI50 (A549) was > 100 µM (inactive) and the GI50 (Malme-3M) was > 100 µM (inactive). For the same compound, the GI50 (UACC-62) was > 100 µM (inactive), the GI50 (SK-MEL-2) was > 100 µM (inactive) and the GI50 (786-0) was > 100 µM (inactive). The GI50 (SK-OV-3) was > 100 µM (inactive), the GI50 (SF-539) was > 100 µM (inactive) and the GI50 (T47D) was > 100 µM (inactive). The GI50 (OVCAR-4) was > 100 µM (inactive), the GI50 (RXF 393) was > 100 µM (inactive) and the GI50 (KM12) was > 100 µM (inactive). For the same compound, the GI50 (SNB-75) was > 100 µM (inactive), the GI50 (K562) was 52.4 µM (inactive) and the GI50 (MDA-MB-231) was > 100 µM (inactive). For the same compound, the GI50 (MDA-MB-435) was > 100 µM (inactive), the GI50 (OVCAR-8) was > 100 µM (inactive) and the GI50 (OVCAR-5) was > 100 µM (inactive). For the same compound, the GI50 (NCI-H226) was > 100 µM (inactive), the GI50 (A498) was > 100 µM (inactive) and the GI50 (RPMI-8226) was > 100 µM (inactive). For the same compound, the GI50 (HT-29) was > 100 µM (inactive), the GI50 (SK-MEL-5) was > 100 µM (inactive) and the GI50 (UACC-257) was > 100 µM (inactive). The GI50 (IGROV-1) was > 100 µM (inactive), the GI50 (SR) was > 100 µM (inactive) and the GI50 (UO-31) was > 100 µM (inactive). For the same compound, the GI50 (CAKI-1) was > 100 µM (inactive), the GI50 (NCI/ADR-RES) was > 100 µM (inactive) and the GI50 (U-251) was > 100 µM (inactive). The GI50 (TK-10) was > 100 µM (inactive), the GI50 (PC-3) was > 100 µM (inactive) and the GI50 (MOLT-4) was > 100 µM (inactive). For the same compound, the GI50 (NCI-H460) was > 100 µM (inactive), the GI50 (Hs-578T) was > 100 µM (inactive) and the GI50 (COLO 205) was > 100 µM (inactive). The GI50 (SNB-19) was > 100 µM (inactive), the GI50 (SF-268) was > 100 µM (inactive) and the GI50 (HOP-62) was > 100 µM (inactive). The GI50 (NCI-H23) was > 100 µM (inactive), the GI50 (ACHN) was > 100 µM (inactive) and the GI50 (LOX IMVI) was > 100 µM (inactive). For the same compound, the GI50 (MCF7) was > 100 µM (inactive), the GI50 (M14) was > 100 µM (inactive) and the GI50 (SN12C) was > 100 µM (inactive). The GI50 (NCI-H522) was 45.7 µM (inactive), the GI50 (BT-549) was > 100 µM (inactive) and the GI50 (MDA-N) was > 100 µM (inactive). The GI50 (EKVX) was > 100 µM (inactive), the GI50 (HCT-116) was > 100 µM (inactive) and the GI50 (HOP-92) was > 100 µM (inactive). The GI50 (SK-MEL-28) was > 100 µM (inactive).

With `C[C@]12Cc3cnn(-c4ccc(F)cc4)c3NC1CC[C@@H]1C2CC[C@@]2(C)C1CC[C@@H]2O` (some centres undefined) the GI50 (SW-620) was 3.83 µM (inactive), the GI50 (SF-295) was 1.62 µM (inactive) and the GI50 (DU-145) was 5.42 µM (inactive). For the same compound, the GI50 (OVCAR-3) was 12.4 µM (inactive), the GI50 (A549) was 4.14 µM (inactive) and the GI50 (Malme-3M) was 11.5 µM (inactive). The GI50 (UACC-62) was 11 µM (inactive), the GI50 (786-0) was 2.68 µM (inactive) and the GI50 (SK-OV-3) was 11.7 µM (inactive). The GI50 (SF-539) was 1.55 µM (inactive), the GI50 (T47D) was 2.65 µM (inactive) and the GI50 (OVCAR-4) was 13.2 µM (inactive). The GI50 (RXF 393) was 1.16 µM (inactive), the GI50 (KM12) was 4.95 µM (inactive) and the GI50 (SNB-75) was 2.76 µM (inactive). The GI50 (HCC 2998) was 5.41 µM (inactive), the GI50 (K562) was 2.94 µM (inactive) and the GI50 (MDA-MB-231) was 6.97 µM (inactive). The GI50 (MDA-MB-435) was 7.8 µM (inactive), the GI50 (HL-60) was 1.61 µM (inactive) and the GI50 (OVCAR-8) was 12.5 µM (inactive). For the same compound, the GI50 (OVCAR-5) was 12.7 µM (inactive), the GI50 (NCI-H226) was 7.93 µM (inactive) and the GI50 (A498) was 8.83 µM (inactive). For the same compound, the GI50 (HT-29) was 1.83 µM (inactive), the GI50 (SK-MEL-5) was 2.65 µM (inactive) and the GI50 (UACC-257) was 5.24 µM (inactive). The GI50 (CCRF-CEM) was 6.92 µM (inactive), the GI50 (IGROV-1) was 12.7 µM (inactive) and the GI50 (SR) was 0.537 µM (active). For the same compound, the GI50 (UO-31) was 8.61 µM (inactive), the GI50 (CAKI-1) was 15.5 µM (inactive) and the GI50 (U-251) was 5.15 µM (inactive). For the same compound, the GI50 (TK-10) was 7.71 µM (inactive), the GI50 (PC-3) was 10 µM (inactive) and the GI50 (MOLT-4) was 2.5 µM (inactive). The GI50 (NCI-H460) was 3.65 µM (inactive), the GI50 (Hs-578T) was 3.1 µM (inactive) and the GI50 (COLO 205) was 2.94 µM (inactive). For the same compound, the GI50 (SNB-19) was 15.5 µM (inactive), the GI50 (SF-268) was 10.1 µM (inactive) and the GI50 (HOP-62) was 9.75 µM (inactive). The GI50 (NCI-H23) was 2.85 µM (inactive), the GI50 (ACHN) was 2.31 µM (inactive) and the GI50 (MCF7) was 4.32 µM (inactive). The GI50 (M14) was 11.1 µM (inactive), the GI50 (SN12C) was 13.2 µM (inactive) and the GI50 (NCI-H522) was 12.2 µM (inactive). For the same compound, the GI50 (BT-549) was 3.14 µM (inactive), the GI50 (MDA-N) was 10.2 µM (inactive) and the GI50 (EKVX) was 4.75 µM (inactive). For the same compound, the GI50 (HCT-116) was 3.94 µM (inactive), the GI50 (HOP-92) was 11 µM (inactive) and the GI50 (SK-MEL-28) was 14.1 µM (inactive).
